Assays:
Assay type in all cases: in vivo
[1] = system: southern armyworm; test: Southern armyworm foliar spray test on bean plants; details: Spodoptera eridania, 120 h; foliar application at 100 ppm; second instar larvae, held five days; read-out: pest mortality SAW
Procedure: (§1) For mite, aphid, southern armyworm, Mexican bean beetle, and tobacco budworm tests, a solution or suspension was prepared by adding 10 mg of the test compound to a solution of 160 mg of dimethylformamide, 838 mg of acetone, 2 mg of a 3:1 ratio of Triton X-172 : Triton X-152 (respectively, mainly anionic and nonionic low foam emulsifiers which are each anhydrous blends of alkylaryl polyether alcohols with organic sulfonates), and […] of water. The result was a concentration of 100 ppm of the test compound.
(§2) Southern armyworm: Potted bean plants, were placed on a revolving turntable and sprayed with 100 ml of the 100 ppm test compound formulation by use of a DeVilbiss spray gun set at 40 psig air pressure. As an untreated control, 100 ml of a water-acetone-DMF-emulsifier solution, containing no test compound, were also sprayed on plants. A treated control with a commercial technical compound, either cypermethrin or sulprofos, formulated in the same manner, was tested as a standard. When dry, the leaves were placed in plastic cups lined with moistened filter paper. Five randomly selected second instar southern armyworm larvae were introduced into each cup which was closed and held for five days. Larvae which were unable to move the length of the body, even upon stimulation by prodding, were considered dead.

[2] = system: Mexican bean beetle; test: Mexican bean beetle foliar spray test on bean plants; details: Epilachna varivestis, 120 h; foliar application at 100 ppm; second instar larvae, held five days; read-out: pest mortality MBB
Procedure: as §1
as §2, with “Mexican bean beetle:” for “Southern armyworm:”, “plants” for “plants,”, “formulation, sufficient to wet the plants to runoff,” for “formulation”, “Mexican bean beetle” for “southern armyworm”

[3] = system: housefly; test: House fly bait test; details: Musca domestica; bait application at 100 ppm; adult flies, after 24 hours; read-out: pest mortality HF
Text: For housefly tests, the formulation was initially prepared in a similar manner to the above, but in 16.3 g of water with corresponding adjustment of other components, providing a 200 ppm concentration. Final dilution with an equal volume of a 20% by weight aqueous solution of sucrose provided a 100 ppm concentration of the test compound. When necessary, sonication was provided to insure complete dispersion.
House fly: Four to six day old adult house flies were reared according to the specifications of the Chemical Specialties Manufacturing Association (Blue Book, McNair-Dorland Co., N.Y. 1954; pages 243-244, 261) under controlled conditions. The flies were immobilized by anesthetizing with carbon dioxide and twenty five immobilized individuals, males and females, were transferred to a cage consisting of a standard food strainer and a wrapping-paper-covered surface. Ten ml of the 100 ppm test compound formulation were added to a soufflé cup containing an absorbent cotton pad. As an untreated control, 10 ml of a water-acetone-DMF-emulsifier-sucrose solution, containing no test compound, were applied in a similar manner. A treated control with a commercial technical compound, malathion, formulated in the same manner, was tested as a standard. The bait cup was introduced inside the food strainer prior to admitting the anesthetized flies.

[4] = system: southern root-knot nematode; test: Southern root-knot nematode soil test on tomato; design: dose or concentration left out as unconfirmed; details: Meloidogyne incognita; Soil Conc. at 21 Kg/ha; second stage juveniles; read-out: pest mortality Nema (J2)
Procedure: For southern root-knot nematode and systemic tests for southern armyworm, cotton aphid, tobacco budworm and greenbug, a stock solution or suspension was prepared by adding 15 mg of the test compound to 250 mg of dimethylformamide, 1250 mg of acetone and 3 mg of the emulsifier blend referenced above. Water was then added to provide a test compound concentration of 150 ppm. When necessary, sonication was provided to insure complete dispersion.
Southern root-knot nematode: Infected roots of tomato plants, containing egg masses of southern root-knot nematode, were removed from a stock culture and cleaned of soil by shaking and washing with tap water. The nematode eggs were separated from the root tissue and rinsed with water. Samples of the egg suspension were placed on a fine screen over a receiving bowl, in which the water level was adjusted to be in contact with the screen. From the bowl, juveniles were collected on a fine screen. The bottom of a cone-shaped container was plugged with coarse vermiculite and then filled to within 1.5 cm of the top with about a 200 ml volume of pasteurized soil. Then into a hole made in the center of the soil in the cone was pipetted an aliquot of the 150 ppm test compound formulation. A treated control with a commercial technical compound, fenamifos, formulated in a similar manner, was tested as a standard. As an untreated control, an aliquot of a water-acetone-DMF-emulsifier solution, containing no test compound, was applied in a similar manner. Immediately after treatment of the soil with the test compound there were added to the top of each cone 1000 second stage juvenile southern root-knot nematodes. After 3 days, a single healthy tomato seedling was then transplanted into the cone. The cone, containing the infested soil and tomato seedling, was kept in the greenhouse for 3 weeks. At the termination of the test, […], […]

[5] = system: twospotted spider mite; test: Twospotted spider mite test; details: Tetranychus urticae, foliar, 144 h, read-out: control of mites
Procedure: Twospotted spider mite: Leaves infested with adult and nymphal stages of the two-spotted spider mite, obtained from a stock culture were placed on the primary leaves of two bean plants growing in a 6 cm. peat pot. A sufficient number of mites (150-200) for testing were transferred to the fresh plants within a period of twenty-four hours. The potted plants (one pot per compound) were placed on a revolving turntable and sprayed, sufficient to wet the plants to runoff, with 100 ml of the 100 ppm test compound formulation by use of a DeVilbiss spray gun set at 40 psig. air pressure. As an untreated control, 100 ml of the water-acetone-DMF-emulsifler solution, containing no test compound, were also sprayed on infested plants. A treated control with a commercial technical compound, either dicofol or hexythiazox, formulated in the same manner, was tested as a standard. The sprayed plants were held for six days, after which a mortality count of motile forms was made.

In the case of `COC(C)C(=O)Nc1c([S+]([O-])C(F)(F)F)c(C#N)nn1-c1c(Cl)cc(C(F)(F)F)cc1Cl` (centres unmarked) [Compound 24], the mortality at 100 ppm [1] is reported as 70 to 100%, the mortality at 100 ppm [2] is reported as 70 to 100% and the mortality at 100 ppm [3] is reported as 70 to 100%. The mortality [4] was 70 to 100% and the mortality at 100 ppm [5] was 30 to 70%.

From patent EP0811615A1, “1-Aryl-5-(substituted alkyl (thio) amido) pyrazoles and their use as pesticides” (RHONE-POULENC AGROCHIMIE, priority 1996, dated 1997)
